Converted amounts (≈) assume the structure as drawn. Like-named read-outs stand apart in the source and are kept apart here.
What was measured:
[1] = test system: HIV-1 (IIIB strain); test: Anti-HIV cytoprotection assay (XTT), HIV-1 IIIB in CEM-SS cells; type: cell-based; settings: CEM-SS cell line, read-out: Inhibitory activity (EC50) against HIV-1 (IIIB strain)
How it was run: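 CEM-SS cells infected with a pre-titrated virus dose killing 85–95% of cells by day 6; protection from HIV-induced death read by XTT formazan. Compounds screened in triplicate at 30 and 10 nM, actives retested at 2 nM; AZT six-concentration curve on each plate as positive control.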

[2] = Thermodynamic (shake-flask) solubility; type: physicochemical; settings: for solubility at 24 h: thermodynamic from solid
Description: The test compound of general formula 1 or 2 (2 mg) was weighed into a glass vial. The pION universal buffer (0.5 ml) with pH 7.4 or deionized water was added to appropriate vials. The vials were tightly closed with a lid, placed on a rotating shaker, and incubated for 24 hours to balance the solution and the solid phase at the saturation point. Each resulting solution (200 μl) was taken (in duplicate) from the vials, placed in a 96-well MultiScreen Solubility Filter Plate (Millipore), and filtered using vacuum ([…]) into a polypropylene plate with a U-shaped bottom. If necessary, the filtrates were diluted with an appropriate buffer (water). Then, 120 μl of the filtarate (or a diluted filtrate) was transferred to a 96-well plate with a UV-transparent bottom and 60 μl/well of acetonitrile and 20 μl/well of DMSO were added and thoroughly mixed with a multichannel pipette (acetonitrile and DMSO were added to obtain a required composition of calibration standards, as described below). The optical density of the resulting solutions was measured on a multifunction Infinite 200 PRO plate reader in the wavelength range from 240 nm to 400 nm in steps of 10 nm. The value of ODλ for solutions was assessed at a wavelength chosen for plotting a calibration curve.
The concentration of a substance in the solution after the solubility test was evaluated using a calibration curve. A stock solution in DMSO with a concentration of 2 mg/ml was prepared from a separate sample. […] The range of final concentrations of the calibration curve was 0.2; 0.1; 0.05; 0.025; 0.0125; 0.00625, and 0 mg/ml. Calibration solutions were prepared in a 96-well UV plate as follows: 20 μl of a 10-fold stock solution in DMSO, 60 μl of acetonitrile, and 120 μl of the appropriate buffer were added to the well and stirred. The optical density of the resulting solutions was measured on a multifunction Infinite 200 PRO plate reader in the wavelength range from 240 nm to 400 nm with a step of 10 nm. The optimal wavelength typically corresponding to the absorption maximum was chosen, and a linear dependence of OD at a given wavelength on the concentration of the compound was obtained.
The concentration of the compound in the filtrate after the solubility test was calculated according to the formula:
shake-flask solubility=(ODλfiltrate−ODλblank)/(slope×1.67×filtrate dilution)
wherein slope means the slope of the calibration curve; 1.67 is the filtrate acetonitrile+DMSO dilution ratio; filtrate dilution is an additional dilution of the filtrate, if applicable.

[3] = aqueous buffer, pION universal buffer pH 7.4, 24 h, read-out: Solubility, pH 7.4, value

## C[C@H]1CO[C@@H]2Cn3cc(C(=O)NCc4ncc(F)cc4F)c(=O)c(O)c3C(=O)N12 [Compound 1.1.17, (3S,11aR)-6-hydroxy-N-[(3,5-difluoropyridin-2-yl)methyl]-3-methyl-5,7-dioxo-2,3,5,7,11,11a-hexahydro[1,3]oxazolo[3,2-a]pyrido[1,2-d]pyrazine-8-carboxamide]
[1]; Human immunodeficiency virus 1, IIIB, CEM-SS
  EC50: 0.24 nM
[2]; [3]
  solubility at 24 h: 0.196 mg/mL (≈ 482 µM)
[2]; deionized water, 24 h, read-out: Solubility, water, value
  solubility at 24 h: 0.131 mg/mL (≈ 322 µM)

## C[C@H]1CO[C@@H]2Cn3cc(C(=O)NCc4ccc(F)nc4F)c(=O)c(O)c3C(=O)N12 [Compound 1.1.19, (3S,11aR)-6-hydroxy-N-[(2,6-difluoropyridin-3-yl)methyl]-3-methyl-5,7-dioxo-2,3,5,7,11,11a-hexahydro[1,3]oxazolo[3,2-a]pyrido[1,2-d]pyrazine-8-carboxamide]
[1]
  EC50: 0.24 nM
[2]; [3]
  solubility at 24 h: 0.232 mg/mL (≈ 571 µM)
[2]; deionized water, 24 h
  Solubility, water, value: 0.269 mg/mL (≈ 662 µM)
[2]; deionized water, water, read-out: Solubility in water
  solubility at 24 h: 0.269 mg/mL (≈ 662 µM)

— US20230020329A1, “Annelated 9-hydroxy-1,8-dioxo-1,3,4,8-tetrahydro-2H-pyrido[1,2-a]pyrazine-7-carboxamides as HIV integrase inhibitors, methods of preparation and application thereof” (priority 2019, published 2023)
